Source: ChEMBL document CHEMBL5579829, “Discovery of a potent CDKs/FLT3 PROTAC with enhanced differentiation and proliferation inhibition for AML” (Eur J Med Chem, 2024)
Calls of active or inactive are those of the source. The rule behind the calls is not given here.

What was measured:
[1] = test system: HL-60; assay: Induction of pro-differentiation of human HL-60 cells assessed as increase in CD11b expression measured after 3 to 5 days by immunostaining-based flow cytometry; assay type: functional, cell-based; settings: dose 1-6.25 nM, time 3-5 day
[2] = target: T1, Protein cereblon/Cyclin-dependent kinase 6 (Homo sapiens, UniProt Q00534+Q96SW2); assay: Protac activity at CRBN/CDK6 in human Kasumi 1 cells assessed as induction of CDK6 degradation at 2 to 32 nM measured after 3 days by Western blot analysis; assay type: cell-based; settings: dose 2-32 nM, time 3.0 day
[3] = target: T2, Protein cereblon/Cyclin-dependent kinase 9 (Homo sapiens, UniProt P50750+Q96SW2); assay: Protac activity at CRBN/CDK9 in human MV4-11 cells assessed as induction of CDK9 degradation at 2 to 32 nM measured after 3 days by Western blot analysis; assay type: cell-based; settings: dose 2-32 nM, time 3.0 day
[4] = target: T3, Protein cereblon/Cyclin-dependent kinase 2 (Homo sapiens, UniProt P24941+Q96SW2); assay: Protac activity at CRBN/CDK2 in human THP-1 cells assessed as induction of CDK2 degradation at 4 to 64 nM measured after 3 days by Western blot analysis; assay type: cell-based; settings: dose 4-64 nM, time 3.0 day
[5] = target: Protein cereblon/Cyclin-dependent kinase 4 (Homo sapiens, UniProt P11802+Q96SW2); assay: Protac activity at CRBN/CDK4 in human Kasumi 1 cells assessed as induction of CDK4 degradation at 2 to 32 nM measured after 3 days by Western blot analysis; assay type: cell-based; settings: dose 2-32 nM, time 3.0 day
[6] = target: T3, Protein cereblon/Cyclin-dependent kinase 2; assay: Protac activity at CRBN/CDK2 in human HL-60 cells assessed as induction of CDK2 degradation by Western blot analysis relative to control; assay type: cell-based
[7] = test system: HL-60; assay: Induction of pro-differentiation of human HL-60 cells assessed as increase in CD11b expression at 6.25 nM measured after 5 days by immunostaining-based flow cytometry relative to control; assay type: functional; settings: time 5 day
[8] = test system: HL-60; assay: Induction of pro-differentiation of human HL-60 cells assessed as increase in CD11b expression at 6.25 nM measured after 3 days by immunostaining-based flow cytometry relative to control; assay type: functional; settings: time 3 day
[9] = test system: HL-60; assay: Induction of pro-differentiation of human HL-60 cells assessed as increase in CD11b expression at 6.25 nM measured after 5 days by immunostaining-based flow cytometry relative to 500 nM CPS2; assay type: functional; settings: time 5 day
[10] = test system: Protein cereblon/Receptor-type tyrosine-protein kinase FLT3 (Homo sapiens), P36888+Q96SW2 [UNDEFINED MUTATION]; assay: Protac activity at CRBN/FLT3-ITD mutant in human MV4-11 cells assessed as induction of FLT3 degradation at 2 nM measured after 3 days by Western blot analysis relative to control; assay type: cell-based; settings: time 3.0 day
[11] = test system: MOLM-13; assay: Antiproliferative activity against human MOLM-13 cells measured after 1 to 3 days by CCK-8 assay; assay type: functional, cell-based
[12] = test system: HL-60; assay: Induction of pro-differentiation of human HL-60 cells assessed as CD11b expression at 4 nM measured after 3 days by immunostaining-based flow cytometry (reference value: 8.32 to 10.55%); assay type: functional; settings: time 3 day
[13] = target: Protein cereblon/Cyclin-dependent kinase 5 (Homo sapiens) (UniProt Q00535+Q96SW2); assay: Protac activity at CRBN/CDK5 in human HL-60 cells assessed as induction of CDK5 degradation at 4 to 64 nM measured after 3 days by Western blot analysis; assay type: cell-based; settings: dose 4-64 nM, time 3.0 day
[14] = target: T3, Protein cereblon/Cyclin-dependent kinase 2; assay: Protac activity at CRBN/CDK2 in human HL-60 cells assessed as induction of CDK2 degradation at 10 nM measured at 12 hrs by Western blot analysis; assay type: cell-based
[15] = target: Protein cereblon/Cyclin-dependent kinase 1 (Homo sapiens) (UniProt P06493+Q96SW2); assay: Protac activity at CRBN/CDK1 in human MV4-11 cells assessed as induction of CDK1 degradation at 2 to 32 nM measured after 3 days by Western blot analysis; assay type: cell-based; settings: dose 2-32 nM, time 3.0 day
[16] = target: T3, Protein cereblon/Cyclin-dependent kinase 2; assay: Protac activity at CRBN/CDK2 in human HL-60 cells assessed as induction of CDK2 degradation at 10 nM measured after 24 hrs in presence of CRBN ligand thalidomide by Western blot analysis; assay type: cell-based
[17] = test system: HL-60; assay: Induction of pro-differentiation of human HL-60 cells assessed as CD11b expression at 2 nM measured after 3 days by immunostaining-based flow cytometry (reference value: 8.32 to 10.55%); assay type: functional; settings: time 3 day
[18] = target: T2, Protein cereblon/Cyclin-dependent kinase 9; assay: Protac activity at CRBN/CDK9 in human THP-1 cells assessed as induction of CDK9 degradation at 4 to 64 nM measured after 3 days by Western blot analysis; assay type: cell-based; settings: dose 4-64 nM, time 3.0 day
[19] = test system: HL-60; assay: Induction of pro-differentiation of human HL-60 cells assessed as CD11b expression at 4 nM measured after 5 days by immunostaining-based flow cytometry (reference value: 10.08 to 10.33%); assay type: functional; settings: time 5 day
[20] = target: T1, Protein cereblon/Cyclin-dependent kinase 6; assay: Protac activity at CRBN/CDK6 in human THP-1 cells assessed as induction of CDK6 degradation at 4 to 64 nM measured after 3 days by Western blot analysis; assay type: cell-based; settings: dose 4-64 nM, time 3.0 day
[21] = test system: OCI-AML2; assay: Antiproliferative activity against human OCI-AML2 cells measured after 1 to 3 days by CCK-8 assay; assay type: functional, cell-based
[22] = target: Protein cereblon/Receptor-type tyrosine-protein kinase FLT3 (Homo sapiens, UniProt P36888+Q96SW2); assay: Protac activity at CRBN/FLT3-ITD in human HL-60 cells assessed as induction of FLT3 degradation measured after 3 days by Western blot analysis; assay type: cell-based
Sequence of Protein cereblon/Receptor-type tyrosine-protein kinase FLT3 (P36888 whole entry, looked up, change not shown): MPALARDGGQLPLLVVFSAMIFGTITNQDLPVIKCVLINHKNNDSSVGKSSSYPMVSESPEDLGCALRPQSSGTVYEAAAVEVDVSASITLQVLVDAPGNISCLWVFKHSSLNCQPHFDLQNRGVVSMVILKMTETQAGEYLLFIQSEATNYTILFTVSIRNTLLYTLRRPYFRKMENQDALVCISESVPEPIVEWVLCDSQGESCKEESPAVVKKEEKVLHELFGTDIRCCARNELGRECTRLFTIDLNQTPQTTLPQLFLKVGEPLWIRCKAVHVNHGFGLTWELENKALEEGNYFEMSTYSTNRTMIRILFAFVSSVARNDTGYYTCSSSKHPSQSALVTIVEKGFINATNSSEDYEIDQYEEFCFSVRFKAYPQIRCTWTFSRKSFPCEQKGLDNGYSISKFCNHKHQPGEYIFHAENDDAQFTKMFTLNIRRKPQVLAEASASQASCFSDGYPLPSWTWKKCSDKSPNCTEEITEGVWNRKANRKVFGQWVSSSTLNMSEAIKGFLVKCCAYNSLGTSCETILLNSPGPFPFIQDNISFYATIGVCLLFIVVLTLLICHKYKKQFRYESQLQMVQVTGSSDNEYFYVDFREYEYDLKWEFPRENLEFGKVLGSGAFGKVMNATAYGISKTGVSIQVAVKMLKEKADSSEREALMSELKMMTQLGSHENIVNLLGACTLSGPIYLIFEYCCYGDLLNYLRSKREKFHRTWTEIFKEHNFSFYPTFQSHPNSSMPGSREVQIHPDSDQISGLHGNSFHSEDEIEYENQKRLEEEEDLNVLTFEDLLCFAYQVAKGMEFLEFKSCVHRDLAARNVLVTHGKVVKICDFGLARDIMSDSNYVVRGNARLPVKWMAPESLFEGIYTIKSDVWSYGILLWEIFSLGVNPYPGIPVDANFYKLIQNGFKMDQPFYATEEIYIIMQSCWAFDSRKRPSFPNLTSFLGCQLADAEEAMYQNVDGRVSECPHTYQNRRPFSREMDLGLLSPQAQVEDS
Sequence of Protein cereblon/Receptor-type tyrosine-protein kinase FLT3 (Q96SW2 whole entry, looked up, change not shown): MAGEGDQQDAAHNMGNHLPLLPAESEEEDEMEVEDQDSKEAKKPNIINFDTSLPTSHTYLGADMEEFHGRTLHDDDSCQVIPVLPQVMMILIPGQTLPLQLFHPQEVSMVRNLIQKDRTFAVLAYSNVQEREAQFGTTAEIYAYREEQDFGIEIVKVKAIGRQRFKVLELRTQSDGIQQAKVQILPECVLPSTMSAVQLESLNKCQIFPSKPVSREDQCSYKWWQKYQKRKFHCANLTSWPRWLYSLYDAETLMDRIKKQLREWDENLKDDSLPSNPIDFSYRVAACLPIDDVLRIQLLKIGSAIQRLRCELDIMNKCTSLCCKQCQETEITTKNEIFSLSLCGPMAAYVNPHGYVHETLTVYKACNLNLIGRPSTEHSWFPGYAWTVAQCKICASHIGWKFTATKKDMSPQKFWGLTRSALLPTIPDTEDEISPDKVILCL

T1 sequence (Q00534 whole entry, looked up): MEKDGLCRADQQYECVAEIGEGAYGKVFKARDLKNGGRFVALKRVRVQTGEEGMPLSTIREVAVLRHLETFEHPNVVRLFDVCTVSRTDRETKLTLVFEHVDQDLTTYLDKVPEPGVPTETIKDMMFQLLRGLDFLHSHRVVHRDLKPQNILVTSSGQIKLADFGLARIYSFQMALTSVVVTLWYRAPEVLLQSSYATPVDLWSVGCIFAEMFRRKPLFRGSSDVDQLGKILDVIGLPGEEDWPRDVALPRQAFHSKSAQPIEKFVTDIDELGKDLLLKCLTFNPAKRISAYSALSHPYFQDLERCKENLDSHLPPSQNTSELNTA
T1 sequence (Q96SW2 whole entry, looked up): as the sequence (Q96SW2 whole entry, looked up, change not shown) above
T2 sequence (P50750 whole entry, looked up): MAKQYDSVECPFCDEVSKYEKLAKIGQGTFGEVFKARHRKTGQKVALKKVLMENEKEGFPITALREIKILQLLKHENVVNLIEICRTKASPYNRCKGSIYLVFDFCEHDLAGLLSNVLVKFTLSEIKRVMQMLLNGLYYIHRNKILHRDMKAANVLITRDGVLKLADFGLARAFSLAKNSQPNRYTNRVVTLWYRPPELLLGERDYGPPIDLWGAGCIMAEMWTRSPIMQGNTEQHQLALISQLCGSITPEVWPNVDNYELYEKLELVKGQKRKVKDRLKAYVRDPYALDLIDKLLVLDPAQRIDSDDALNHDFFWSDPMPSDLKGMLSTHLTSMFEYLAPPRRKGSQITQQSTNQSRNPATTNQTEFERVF
T2 sequence (Q96SW2 whole entry, looked up): as the sequence (Q96SW2 whole entry, looked up, change not shown) above
Sequence of Protein cereblon/Cyclin-dependent kinase 1 (Homo sapiens) (P06493 whole entry, looked up): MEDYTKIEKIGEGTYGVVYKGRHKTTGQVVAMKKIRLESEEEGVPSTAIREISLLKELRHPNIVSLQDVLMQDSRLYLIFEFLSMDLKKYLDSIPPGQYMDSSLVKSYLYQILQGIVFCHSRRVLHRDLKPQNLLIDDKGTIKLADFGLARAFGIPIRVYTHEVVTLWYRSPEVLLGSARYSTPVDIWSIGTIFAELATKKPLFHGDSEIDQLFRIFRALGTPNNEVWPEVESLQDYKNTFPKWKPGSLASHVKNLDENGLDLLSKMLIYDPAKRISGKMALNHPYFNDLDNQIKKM
Sequence of Protein cereblon/Cyclin-dependent kinase 1 (Homo sapiens) (Q96SW2 whole entry, looked up): as the sequence (Q96SW2 whole entry, looked up, change not shown) above
Sequence of Protein cereblon/Cyclin-dependent kinase 5 (Homo sapiens) (Q00535 whole entry, looked up): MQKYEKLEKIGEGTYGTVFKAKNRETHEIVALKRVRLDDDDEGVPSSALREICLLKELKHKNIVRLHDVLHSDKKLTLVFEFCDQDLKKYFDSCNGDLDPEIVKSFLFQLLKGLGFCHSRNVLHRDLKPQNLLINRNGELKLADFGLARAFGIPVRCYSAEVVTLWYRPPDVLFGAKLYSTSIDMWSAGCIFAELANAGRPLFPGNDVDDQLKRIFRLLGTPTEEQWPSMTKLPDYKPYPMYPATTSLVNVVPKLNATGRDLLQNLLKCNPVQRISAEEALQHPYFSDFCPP
Sequence of Protein cereblon/Cyclin-dependent kinase 5 (Homo sapiens) (Q96SW2 whole entry, looked up): as the sequence (Q96SW2 whole entry, looked up, change not shown) above
Sequence of Protein cereblon/Receptor-type tyrosine-protein kinase FLT3 (Homo sapiens), P36888+Q96SW2 [UNDEFINED MUTATION] (P36888 whole entry, looked up, stated change not applied): as the sequence (P36888 whole entry, looked up, change not shown) above
Sequence of Protein cereblon/Receptor-type tyrosine-protein kinase FLT3 (Homo sapiens), P36888+Q96SW2 [UNDEFINED MUTATION] (Q96SW2 whole entry, looked up, stated change not applied): as the sequence (Q96SW2 whole entry, looked up, change not shown) above
Sequence of Protein cereblon/Cyclin-dependent kinase 4 (P11802 2-303 limits assumed): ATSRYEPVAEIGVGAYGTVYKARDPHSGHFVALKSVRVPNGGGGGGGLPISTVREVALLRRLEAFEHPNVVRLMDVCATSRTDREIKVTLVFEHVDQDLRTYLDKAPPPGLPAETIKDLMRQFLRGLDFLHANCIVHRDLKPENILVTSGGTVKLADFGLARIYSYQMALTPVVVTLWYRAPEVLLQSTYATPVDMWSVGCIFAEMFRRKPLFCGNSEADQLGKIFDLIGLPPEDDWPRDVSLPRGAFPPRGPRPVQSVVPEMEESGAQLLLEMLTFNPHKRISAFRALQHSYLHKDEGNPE
Sequence of Protein cereblon/Cyclin-dependent kinase 4 (Q96SW2 whole entry partner): as the sequence (Q96SW2 whole entry, looked up, change not shown) above

Q: Which Activity [1] does the source give for O=C1CCC(N2C(=O)c3ccc(N4CCC(CN5CCN(Cc6ccc(NC(=O)c7n[nH]cc7Nc7ncnc8[nH]ccc78)cc6)CC5)CC4)cc3C2=O)C(=O)N1 (configuration not stated) here?
A: Dose-Dependent Effect

Q: And the Activity [2]?
A: Active

Q: And the Activity [3]?
A: Active

Q: What about the Activity [4] of the same molecule?
A: Active

Q: What about the Activity [5] of the same molecule?
A: Active

Q: And the Emax [6]?
A: 81.9%

Q: And the “fold change (FC)” value [7]?
A: 7.2

Q: What about the “fold change (FC)” value [8] of the same molecule?
A: 5.7

Q: What about the “fold change (FC)” value [9] of the same molecule?
A: 2.1

Q: And the Activity [10]?
A: 77%

Q: And the IC50 [11]?
A: 4.52 nM

Q: What about the Activity [12] of the same molecule?
A: 43.94%

Q: And the Activity [13]?
A: inactive

Q: And the Activity [14]?
A: Active

Q: And the Activity [15]?
A: inactive

Q: What about the Activity [16] of the same molecule?
A: inactive

Q: What about the Activity [17] of the same molecule?
A: 29.09%

Q: And the Activity [18]?
A: Active

Q: What about the Activity [19] of the same molecule?
A: 58.59%

Q: What about the Activity [20] of the same molecule?
A: Active

Q: What about the IC50 [21] of the same molecule?
A: 17.9 nM

Q: And the DC50 [22]?
A: 5.69 nM
